Measured values reported in US20250019387A1 (Frontier Medicines Corporation, priority 0001, published 2025).

Molecular target: KRAS G12C and cRAF (Ras-binding domain) interaction (Homo sapiens (Human), UniProt P01116, C118S/C51S/C80L/G12C)
Assay: Inhibition of KRAS G12C and cRAF binding (AlphaScreen)
Conditions: GMPPNP-loaded KRAS G12C, 19-20 hours incubation with compound; read-out: IC50 (Inhibition of KRAS G12C and cRAF Binding)
Method: Compounds were diluted in 100% DMSO and each compound concentration was spotted at 200 nl/well onto low volume, white 384 well plates. […] Plates were incubated for 19-20 hours. A mixture of RBD and the AlphaScreen streptavidin donor and glutathione acceptor beads diluted in 25 mM Hepes, pH 7.4, 150 mM NaCl, 5 mM MgCl2, 0.01% TritonX-100 and 2% DMSO was then added at 10 ul/well and incubated for 60-90 minutes before the samples were read for emission at 570 nm after excitation of the donor beads at 680 nm. All incubations were performed at room temperature. […] IC50s were determined using nonlinear regression fit of [inhibitor]vs. response (4 parameters). […]

Sequence of KRAS G12C and cRAF (Ras-binding domain) interaction (P01116 other isoform, or with tags, fused parts or gaps G12C/C51S/C80L/C118S): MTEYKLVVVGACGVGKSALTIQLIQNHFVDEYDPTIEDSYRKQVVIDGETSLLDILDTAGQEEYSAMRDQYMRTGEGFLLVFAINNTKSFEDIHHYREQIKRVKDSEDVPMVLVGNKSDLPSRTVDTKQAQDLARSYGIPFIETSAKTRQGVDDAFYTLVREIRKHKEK

For CN(c1nc(OC[C@@H]2CCCN2C)nc2c(F)c(-c3cccc4cccc(Cl)c34)ncc12)C1CCN(C#N)C1 (stereo partly drawn) [Example 35, 3-((7-(8-chloronaphthalen-1-yl)-8-fluoro-2-(((S)-1-methylpyrrolidin-2-yl)methoxy)pyrido[4,3-d]pyrimidin-4-yl)(methyl)amino)pyrrolidine-1-carbonitrile], which IC50 is on record?
Its IC50 is 10 to 100 nM.

How did the IC50 turn out when CN1CCCC1C#CC(=O)N1CC[C@@H](N(C)c2nc(OC[C@@]34CCCN3C[C@H](F)C4)nc3c(F)c(-c4cccc5cccc(Cl)c45)ncc23)C1 (stereo partly drawn) [Example 66, 1-((R)-3-((7-(8-chloronaphthalen-1-yl)-8-fluoro-2-(((2R,7aS)-2-fluorotetrahydro-1H-pyrrolizin-7a(5H)-yl)methoxy)pyrido[4,3-d]pyrimidin-4-yl)(methyl)amino)pyrrolidin-1-yl)-3-(1-methylpyrrolidin-2-yl)prop-2-yn-1-one] was run?
Its IC50 is 10 to 100 nM.

C=CC(=O)N1CC[C@@H](N(C)c2nc(OC[C@@]34CCCN3C[C@H](F)C4)nc3c(F)c(-c4cccc5ccc(F)c(F)c45)ncc23)C1 [Example 192, 1-((R)-3-((7-(7,8-difluoronaphthalen-1-yl)-8-fluoro-2-(((2R,7aS)-2-fluorotetrahydro-1H-pyrrolizin-7a(5H)-yl)methoxy)pyrido[4,3-d]pyrimidin-4-yl)(methyl)amino)pyrrolidin-1-yl)prop-2-en-1-one] was tested. Which IC50 did it give?
Its IC50 is 10 to 100 nM.

With C=CC(=O)N1CC[C@@H](N(C)c2nc(OCC34CCCN3CCC4)nc3c(F)c(-c4cccc5ccc(F)c(CC)c45)ncc23)C1 [Example 253, (R)-1-(3-((7-(8-ethyl-7-fluoronaphthalen-1-yl)-8-fluoro-2-((tetrahydro-1H-pyrrolizin-7a(5H)-yl)methoxy)pyrido[4,3-d]pyrimidin-4-yl)(methyl)amino)pyrrolidin-1-yl)prop-2-en-1-one] as the compound, how does the IC50 read?
The IC50 was 100 to 500 nM.

C#Cc1c(F)ccc2cccc(-c3ncc4c(N(C)CC5CN(C(=O)/C=C/c6cc(C)nc(C)n6)C5)nc(OC[C@@]56CCCN5C[C@H](F)C6)nc4c3F)c12 [Example 280, (E)-3-(2,6-dimethylpyrimidin-4-yl)-1-(3-(((7-(8-ethynyl-7-fluoronaphthalen-1-yl)-8-fluoro-2-(((2R,7aS)-2-fluorotetrahydro-1H-pyrrolizin-7a(5H)-yl)methoxy)pyrido[4,3-d]pyrimidin-4-yl)(methyl)amino)methyl)azetidin-1-yl)prop-2-en-1-one] was tested. Which IC50 did it give?
The IC50 was 10 to 100 nM.

For CN(c1nc(OC[C@@]23CCCN2C[C@H](F)C3)nc2c(F)c(-c3cccc4cccc(Cl)c34)ncc12)[C@@H]1CCN(C(=O)C=C2CCC2)C1 [Example 267, 1-((R)-3-((7-(8-chloronaphthalen-1-yl)-8-fluoro-2-(((2R,7aS)-2-fluorotetrahydro-1H-pyrrolizin-7a(5H)-yl)methoxy)pyrido[4,3-d]pyrimidin-4-yl)(methyl)amino)pyrrolidin-1-yl)-2-cyclobutylideneethan-1-one], which IC50 is on record?
The IC50 was 100 to 500 nM.

CN(CC1CN(C(=O)C#CCN2CCOCC2)C1)c1nc(OC[C@@]23CCCN2C[C@H](F)C3)nc2c(F)c(-c3cccc4cccc(Cl)c34)ncc12 [Example 91, 1-(3-(((7-(8-chloronaphthalen-1-yl)-8-fluoro-2-(((2R,7aS)-2-fluorotetrahydro-1H-pyrrolizin-7a(5H)-yl)methoxy)pyrido[4,3-d]pyrimidin-4-yl)(methyl)amino)methyl)azetidin-1-yl)-4-morpholinobut-2-yn-1-one] was tested. Which IC50 did it give?
The IC50 was 100 to 500 nM.

For CN(c1nc(OC[C@@]23CCCN2C[C@H](F)C3)nc2c(F)c(-c3cccc4cccc(Cl)c34)ncc12)[C@@H]1CCN(C(=O)C#CC2CCNC2)C1 (stereo partly drawn) [Example 58, 1-((R)-3-((7-(8-chloronaphthalen-1-yl)-8-fluoro-2-(((2R,7aS)-2-fluorohexahydro-1H-pyrrolizin-7a-yl)methoxy)pyrido[4,3-d]pyrimidin-4-yl)(methyl)amino)pyrrolidin-1-yl)-3-(pyrrolidin-3-yl)prop-2-yn-1-one], which IC50 is on record?
Its IC50 is 10 to 100 nM.

How did the IC50 turn out when COC(=O)/C=C/C(=O)NCCN(C)c1nc(OCC23CCCN2CCC3)nc2c1CCN(c1cccc3cccc(Cl)c13)C2 [Example 13, Methyl(E)-4-((2-((7-(8-chloronaphthalen-1-yl)-2-((tetrahydro-1H-pyrrolizin-7a(5H)-yl)methoxy)-5,6,7,8-tetrahydropyrido[3,4-d]pyrimidin-4-yl)(methyl)amino)ethyl)amino)-4-oxobut-2-enoate] was run?
Its IC50 is 10 to 100 nM.

Which IC50 does the source give for CN(CC1CN(C(=O)/C=C/c2nc(C(C)(C)O)no2)C1)c1nc(OCC23CCCN2CCC3)nc2c(F)c(-c3cccc4ccc(F)c(Cl)c34)ncc12 [Example 229, (E)-1-(3-(((7-(8-chloro-7-fluoronaphthalen-1-yl)-8-fluoro-2-((tetrahydro-1H-pyrrolizin-7a(5H)-yl)methoxy)pyrido[4,3-d]pyrimidin-4-yl)(methyl)amino)methyl)azetidin-1-yl)-3-(3-(2-hydroxypropan-2-yl)-1,2,4-oxadiazol-5-yl)prop-2-en-1-one] here?
The IC50 was less than 10 nM.

How did the IC50 turn out when CN(CC1CN(C(=O)/C=C/c2nc(C(C)(C)O)no2)C1)c1nc(OC[C@@]23CCCN2C[C@H](F)C3)nc2c(F)c(-c3cccc4ccc(F)c(Cl)c34)ncc12 [Example 78, (E)-1-(3-(((7-(8-chloro-7-fluoronaphthalen-1-yl)-8-fluoro-2-(((2R,7aS)-2-fluorotetrahydro-1H-pyrrolizin-7a(5H)-yl)methoxy)pyrido[4,3-d]pyrimidin-4-yl)(methyl)amino)methyl)azetidin-1-yl)-3-(3-(2-hydroxypropan-2-yl)-1,2,4-oxadiazol-5-yl)prop-2-en-1-one] was run?
The IC50 was less than 10 nM.

Which IC50 does the source give for Cc1nccc(/C=C/C(=O)N2CC[C@@H](N(C)c3nc(OC[C@@]45CCCN4C[C@H](F)C5)nc4c3CCN(c3cccc5cccc(Cl)c35)C4)C2)n1 [Example 71, (E)-1-((R)-3-((7-(8-chloronaphthalen-1-yl)-2-(((2R,7aS)-2-fluorohexahydro-1H-pyrrolizin-7a-yl)methoxy)-5,6,7,8-tetrahydropyrido[3,4-d]pyrimidin-4-yl)(methyl)amino)pyrrolidin-1-yl)-3-(2-methylpyrimidin-4-yl)prop-2-en-1-one] here?
Its IC50 is greater than 500 nM.

Same assay, conditions: additional exemplary compounds; KRAS G12C and cRAF binding; read-out: RAF1 RBD IC50

How did the IC50 turn out when C=CC(=O)N1CCC(CN(C)c2nc(OC[C@@]34CCCN3C[C@H](F)C4)nc3c(F)c(-c4cccc5cccc(Cl)c45)ncc23)C1 (stereo partly shown) was run?
The IC50 was greater than 500 nM.

CN(c1nc(OC[C@@]23CCCN2C[C@H](F)C3)nc2c(F)c(-c3cccc4cccc(Cl)c34)ncc12)[C@@H]1CCN(C#N)C1 was tested. Which IC50 did it give?
The IC50 was 10 to 100 nM.

Which IC50 does the source give for C=CC(=O)N1CC(CN(C)c2nc(OC[C@@]34CCCN3C[C@@H](F)C4)nc3c2CCN(c2cccc4cccc(Cl)c24)C3)C1 here?
The IC50 was greater than 500 nM.

CN(c1nc(OC[C@@]23CCCN2C[C@H](F)C3)nc2c(F)c(-c3cccc4cccc(Cl)c34)ncc12)[C@@H]1CCN(C(=O)/C=C/c2ccncn2)C1 was tested. Which IC50 did it give?
Its IC50 is greater than 500 nM.

With CN(c1nc(OC[C@@]23CCCN2C[C@H](F)C3)nc2c(F)c(-c3cccc4cccc(Cl)c34)ncc12)[C@@H]1CCN(C(=O)/C=C/c2ncc(F)cn2)C1 as the compound, how does the IC50 read?
The IC50 was greater than 500 nM.

Which IC50 does the source give for C=CC(=O)N1CCC[C@@H](N(C)c2nc(OC[C@@]34CCCN3C[C@H](F)C4)nc3c2CCN(c2cccc4cccc(Cl)c24)C3)C1 here?
Its IC50 is greater than 500 nM.

Cc1nccc(/C=C/C(=O)N2CCN(c3nc(OC[C@@]45CCCN4C[C@H](F)C5)nc4c(F)c(-c5cccc6cccc(Cl)c56)ncc34)C3CC32)n1 (stereo partly shown) was tested. Which IC50 did it give?
The IC50 was greater than 500 nM.

C=CC(=O)N1CC[C@@H](N(C)c2nc(OC[C@@]34CCCN3C[C@H](F)C4)nc3c(F)c(-c4cc(C(F)F)cc5ccccc45)ncc23)C1 was tested. Which IC50 did it give?
The IC50 was greater than 500 nM.

Which IC50 does the source give for C=CC(=O)CCNc1nc(OC[C@@H]2CCCN2C)nc2c1CCN(c1cccc3ccccc13)C2 here?
Its IC50 is greater than 500 nM.

Cc1noc(/C=C/C(=O)N2CCN(c3nc(OC[C@@]45CCCN4C[C@H](F)C5)nc4c3CCN(c3cccc5cccc(Cl)c35)C4)CC2)n1 was tested. Which IC50 did it give?
The IC50 was greater than 500 nM.

C=CC(=O)N1CC[C@@H](N(C)c2nc(OC[C@@]34CCCN3C[C@H](F)C4)nc3c(F)c(-c4cccc5c(C)c(F)ccc45)ncc23)C1 was tested. Which IC50 did it give?
The IC50 was greater than 500 nM.

Which IC50 does the source give for CN(C)C/C=C/S(=O)(=O)CCN(C)c1nc(OC[C@@]23CCCN2C[C@H](F)C3)nc2c1CCN(c1cccc3cccc(Cl)c13)C2 here?
The IC50 was less than 10 nM.

CN(C)C/C=C/S(=O)(=O)CCN(C)c1nc(OC[C@@H]2CCCN2C)nc2c(F)c(-c3cccc4ccc(F)c(Cl)c34)ncc12 was tested. Which IC50 did it give?
Its IC50 is 10 to 100 nM.

O=C(/C=C/CN1CCOCC1)N1CC2CC(C1)N2c1nc(OC[C@@]23CCCN2C[C@H](F)C3)nc2c(F)c(-c3cccc4cccc(Cl)c34)ncc12 was tested. Which IC50 did it give?
The IC50 was greater than 500 nM.

With CC(C)c1noc(/C=C/C(=O)N2CCN(c3nc(OCC45CCCN4CCC5)nc4c3CCN(c3cccc5cccc(Cl)c35)C4)CC2)n1 as the compound, how does the IC50 read?
The IC50 was greater than 500 nM.

How did the IC50 turn out when COC/C=C/C(=O)N1CC[C@@H](N(C)c2nc(OCC34CCCN3CCC4)nc3c2CCN(c2cccc4cccc(Cl)c24)C3)C1 was run?
Its IC50 is 100 to 500 nM.

C=CC(=O)N1CC(N(C)c2nc(OCC34CCCN3CCC4)nc3c(F)c(-c4cccc5cccc(Cl)c45)ncc23)C1 was tested. Which IC50 did it give?
The IC50 was greater than 500 nM.

For C=CC(=O)N1CC[C@@H](N(C)c2nc(OC[C@@]34CCCN3C[C@@H](F)C4)nc3c(F)c(-c4cccc5cccc(Cl)c45)ncc23)C1, which IC50 is on record?
The IC50 was greater than 500 nM.

How did the IC50 turn out when CCN(CC)C/C=C/S(=O)(=O)CCN(C)c1nc(OCC23CCCN2CCC3)nc2c(F)c(-c3cccc4cccc(Cl)c34)ncc12 was run?
Its IC50 is less than 10 nM.

C=CC(=O)N(C)C[C@H]1CCN1c1nc(OC[C@@]23CCCN2C[C@H](F)C3)nc2c(F)c(-c3cccc4cccc(Cl)c34)ncc12 was tested. Which IC50 did it give?
Its IC50 is greater than 500 nM.

CN(C)C/C=C/S(=O)(=O)CCN(C)c1nc(OC[C@@H]2CCCN2C)nc2c(F)c(-c3cccc4cccc(Cl)c34)ncc12 was tested. Which IC50 did it give?
The IC50 was 10 to 100 nM.

For Cc1nccc(/C=C/C(=O)N2CCC3(C2)CN(c2nc(OC[C@@]45CCCN4C[C@H](F)C5)nc4c(F)c(-c5cccc6cccc(Cl)c56)ncc24)C3)n1, which IC50 is on record?
Its IC50 is greater than 500 nM.
